For this test, the target named is T1, Dihydrofolate reductase (Escherichia coli (strain K12), UniProt O30463+P0ABQ4).
T1 sequence (P0ABQ4 whole entry): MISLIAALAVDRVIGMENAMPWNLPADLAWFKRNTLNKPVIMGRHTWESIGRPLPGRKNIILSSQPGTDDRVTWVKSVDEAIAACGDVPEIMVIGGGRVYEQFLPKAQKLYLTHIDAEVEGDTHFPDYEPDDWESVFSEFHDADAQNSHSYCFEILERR
T1 sequence (O30463 whole entry): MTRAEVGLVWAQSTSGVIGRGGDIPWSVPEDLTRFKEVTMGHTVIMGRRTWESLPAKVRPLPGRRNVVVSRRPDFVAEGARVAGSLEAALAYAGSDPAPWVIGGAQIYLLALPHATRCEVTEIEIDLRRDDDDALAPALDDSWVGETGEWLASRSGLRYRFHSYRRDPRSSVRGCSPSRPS
The experiment in a line: Inhibitory concentration against Escherichia coli dihydrofolate reductase.

For orientation: IC50 means the concentration needed to halve the response being measured. High values mean weaker potency in that assay, low ones greater potency in that assay.

`CN(Cc1ccc2c(n1)C(N)N=C(N)N2)c1ccc(C(=O)NC(CCC(=O)O)C(=O)O)cc1` (stereo unspecified) [2-{4-[(2,4-Diamino-4,4a-dihydro-pyrido[3,2-d]pyrimidin-6-ylmethyl)-methyl-amino]-benzoylamino}-pentanedioic acid]: 660 µM corresponded to half-maximal inhibition (IC50).
